Experimental data from PubChem BioAssay (NCI).
Where “and” joins values, the source holds several entries; their conditions need not be identical. Equal entries are not always repeated.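 Compound exposure: 48 hours, 5 concentrations, 96-well plates. GI50 marks 50% less growth. TGI denotes the concentration required for complete inhibition of growth.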

What was measured:
Assay in all cases: DTP human tumour cell line panel, 48 h
CAKI-1 renal = test system: CAKI-1 renal
HOP-92 NSCLC = test system: HOP-92 NSCLC
M14 melanoma = test system: M14 melanoma
NCI-H23 lung = test system: NCI-H23 lung
NCI-H460 lung = test system: NCI-H460 lung
SK-MEL-5 melanoma = test system: SK-MEL-5 melanoma
SN12C renal = test system: SN12C renal
SW-620 colon = test system: SW-620 colon
UACC-257 melanoma = test system: UACC-257 melanoma
SR leukemia = test system: SR leukemia

SMILES: Cc1ccc(C(=O)C#Cc2c[nH]c(=O)[nH]c2=O)cc1
- TGI (CAKI-1 renal): 30.5 µM
- TGI (HOP-92 NSCLC): 33.3 µM
- TGI (M14 melanoma): 35 µM
- TGI (NCI-H23 lung): 39.6 µM
- TGI (NCI-H460 lung): 33.8 µM
- TGI (SK-MEL-5 melanoma): 26.5 µM
- TGI (SN12C renal): 16.2 µM
- TGI (SW-620 colon): 20.9 µM
- TGI (UACC-257 melanoma): 34.6 µM

SMILES: O=C(O)c1ccccc1-c1ccccc1C(=O)Nc1ccc2c(c1)[nH]c(=O)c1ccccc12
- TGI (CAKI-1 renal): > 100 µM
- TGI (HOP-92 NSCLC): > 100 µM
- TGI (M14 melanoma): > 100 µM
- TGI (NCI-H23 lung): > 100 µM
- TGI (NCI-H460 lung): > 100 µM
- TGI (SK-MEL-5 melanoma): > 100 µM
- TGI (SN12C renal): > 100 µM
- TGI (SW-620 colon): > 100 µM
- TGI (UACC-257 melanoma): > 100 µM

SMILES: COc1ccccc1C(N)c1ccccc1 (centres undefined)
- TGI (HOP-92 NSCLC): > 100 µM
- TGI (M14 melanoma): > 100 µM
- TGI (NCI-H23 lung): > 100 µM
- TGI (NCI-H460 lung): > 100 µM
- TGI (SK-MEL-5 melanoma): > 100 µM
- TGI (SN12C renal): > 100 µM
- TGI (SW-620 colon): > 100 µM
- TGI (UACC-257 melanoma): > 100 µM

SMILES: N#C/C(=C1C=C/C(=N\O)C(Cl)=C\1)c1ccccc1
- GI50 (CAKI-1 renal): 1.68 µM
- TGI (CAKI-1 renal): 21.3 µM
- GI50 (M14 melanoma): 3.2 µM
- TGI (M14 melanoma): 14.2 µM
- GI50 (NCI-H23 lung): 5.61 µM
- TGI (NCI-H23 lung): 65.6 µM
- GI50 (NCI-H460 lung): 2.82 µM
- TGI (NCI-H460 lung): 11.9 µM
- GI50 (SK-MEL-5 melanoma): 3.05 µM
- TGI (SK-MEL-5 melanoma): 10.3 µM
- GI50 (SN12C renal): 3.19 µM
- TGI (SN12C renal): 13 µM
- GI50 (SR leukemia): 1.8 µM
- TGI (SR leukemia): 11.3 µM
- GI50 (SW-620 colon): 1.42 µM
- TGI (SW-620 colon): 12.9 µM
- GI50 (UACC-257 melanoma): 4.49 µM
- TGI (UACC-257 melanoma): 28.2 µM

SMILES: N#CCCSC(=S)C1CCCC1=N (centres undefined)
- TGI (CAKI-1 renal): > 100 µM
- TGI (HOP-92 NSCLC): > 100 µM
- TGI (M14 melanoma): > 100 µM
- TGI (NCI-H23 lung): > 100 µM
- TGI (NCI-H460 lung): > 100 µM
- TGI (SK-MEL-5 melanoma): > 100 µM
- TGI (SN12C renal): > 100 µM
- TGI (SW-620 colon): > 100 µM
- TGI (UACC-257 melanoma): > 100 µM

SMILES: O=C(O)c1cccc2cccc(C(=O)O)c12.[Hg]
- GI50 (CAKI-1 renal): 21.7 µM
- TGI (CAKI-1 renal): 53.8 µM
- GI50 (M14 melanoma): 14 µM
- TGI (M14 melanoma): 27 µM
- GI50 (NCI-H23 lung): 15.7 µM
- TGI (NCI-H23 lung): 29.9 µM
- GI50 (NCI-H460 lung): 16.4 µM
- TGI (NCI-H460 lung): 31.7 µM
- GI50 (SK-MEL-5 melanoma): 14 µM
- TGI (SK-MEL-5 melanoma): 27 µM
- GI50 (SN12C renal): 14.6 µM
- TGI (SN12C renal): 27.7 µM
- GI50 (SR leukemia): 4.05 µM
- TGI (SR leukemia): 23.5 µM
- GI50 (SW-620 colon): 12.7 µM
- TGI (SW-620 colon): 32 µM
- GI50 (UACC-257 melanoma): 16.7 µM
- TGI (UACC-257 melanoma): 30.8 µM

SMILES: Cc1ccc(NC2=C(Cl)C(=O)N(Cc3ccccc3)C2=O)cc1Cl
- GI50 (CAKI-1 renal): 5.92 µM
- TGI (CAKI-1 renal): 26 µM
- GI50 (M14 melanoma): 11 µM
- TGI (M14 melanoma): 22.9 µM
- GI50 (NCI-H23 lung): 4.13 µM
- TGI (NCI-H23 lung): 14.6 µM
- GI50 (NCI-H460 lung): 6.78 µM
- TGI (NCI-H460 lung): 23.6 µM
- GI50 (SK-MEL-5 melanoma): 5.64 µM
- TGI (SK-MEL-5 melanoma): 19.1 µM
- GI50 (SN12C renal): 3.4 µM
- TGI (SN12C renal): 15.8 µM
- GI50 (SR leukemia): 1.19 µM
- TGI (SR leukemia): 5.75 µM
- GI50 (SW-620 colon): 5.14 µM
- TGI (SW-620 colon): 16.9 µM

SMILES: NCCCNCCSSC/C=C\CSSCCNCCCN
- TGI (CAKI-1 renal): > 100 µM
- TGI (HOP-92 NSCLC): 86.3 µM and 84.5 µM
- TGI (M14 melanoma): > 100 µM
- TGI (NCI-H23 lung): > 100 µM
- TGI (NCI-H460 lung): > 100 µM
- TGI (SK-MEL-5 melanoma): > 100 µM
- TGI (SN12C renal): > 100 µM
- TGI (SW-620 colon): > 100 µM
- TGI (UACC-257 melanoma): > 100 µM and 76.8 µM

SMILES: O=C1NC(c2c(Cl)cccc2Cl)Nc2ccccc21 (centres undefined)
- TGI (CAKI-1 renal): 76.7 µM
- TGI (HOP-92 NSCLC): > 100 µM
- TGI (M14 melanoma): > 100 µM
- TGI (NCI-H460 lung): > 100 µM
- TGI (SK-MEL-5 melanoma): 72.7 µM
- TGI (SN12C renal): > 100 µM
- TGI (SW-620 colon): > 100 µM
- TGI (UACC-257 melanoma): > 100 µM

SMILES: CCn1c(-c2nonc2N)nc2cncc(C(=O)NCCNC)c21
- GI50 (CAKI-1 renal): 1.56 µM
- TGI (CAKI-1 renal): 14.4 µM
- GI50 (M14 melanoma): 17.2 µM
- TGI (M14 melanoma): > 25 µM
- GI50 (NCI-H23 lung): 9.32 µM
- TGI (NCI-H23 lung): > 25 µM
- GI50 (NCI-H460 lung): 8.59 µM
- TGI (NCI-H460 lung): > 25 µM
- GI50 (SK-MEL-5 melanoma): > 16 µM
- TGI (SK-MEL-5 melanoma): > 25 µM
- GI50 (SN12C renal): > 25 µM
- TGI (SN12C renal): > 25 µM
- GI50 (SR leukemia): 4.53 µM
- TGI (SR leukemia): > 25 µM
- GI50 (SW-620 colon): 4.07 µM
- TGI (SW-620 colon): > 25 µM
- GI50 (UACC-257 melanoma): 3.04 µM
- TGI (UACC-257 melanoma): > 25 µM

SMILES: COC(=O)C(Cc1ccccc1)NC(=O)Cn1ccnc1[N+](=O)[O-] (centres undefined)
- TGI (CAKI-1 renal): > 100 µM
- TGI (HOP-92 NSCLC): > 100 µM
- TGI (M14 melanoma): > 100 µM
- TGI (NCI-H23 lung): > 100 µM
- TGI (NCI-H460 lung): > 100 µM
- TGI (SK-MEL-5 melanoma): > 100 µM
- TGI (SN12C renal): > 100 µM
- TGI (SW-620 colon): > 100 µM
- TGI (UACC-257 melanoma): > 100 µM

SMILES: COC(=O)CS(=O)c1ccccc1 (centres undefined)
- TGI (CAKI-1 renal): > 100 µM
- TGI (HOP-92 NSCLC): > 100 µM
- TGI (M14 melanoma): > 100 µM
- TGI (NCI-H23 lung): > 100 µM
- TGI (NCI-H460 lung): > 100 µM
- TGI (SK-MEL-5 melanoma): > 100 µM
- TGI (SN12C renal): 40.4 µM
- TGI (SW-620 colon): > 100 µM
- TGI (UACC-257 melanoma): > 100 µM

SMILES: O=C(O)c1c[nH]c2c(OCc3ccccc3)c3ccccc3c(O)c2c1=O
- GI50 (CAKI-1 renal): 17 µM
- TGI (CAKI-1 renal): 35 µM
- GI50 (M14 melanoma): 12.6 µM
- TGI (M14 melanoma): 25.2 µM
- GI50 (NCI-H23 lung): 3.22 µM
- TGI (NCI-H23 lung): 14.3 µM
- GI50 (NCI-H460 lung): 14.9 µM
- TGI (NCI-H460 lung): 38.7 µM
- GI50 (SN12C renal): 11.3 µM
- TGI (SN12C renal): 23.3 µM
- GI50 (SR leukemia): 28.3 µM
- TGI (SR leukemia): 59.6 µM
- GI50 (UACC-257 melanoma): 11.8 µM
- TGI (UACC-257 melanoma): 24.2 µM
